Laboratory results from article PMC11606603, “The membrane domains of mammalian adenylyl cyclases are lipid receptors” (eLife, 2024).
Where “and” joins values, the source holds several entries; their conditions need not be identical. Equal entries are not always repeated.

Assays:
Type in all cases: biochemical
[1] = target: T1, mAC3 (Homo sapiens, UniProt O60266); experiment: AC assay, Gsα-stimulated mAC3 in membranes from transfected HEK293 cells; settings: for mAC3 activity [%] (100% = 300nM Gsα stimulation): fatty acid 20 µM, individual experiments; for Effect of lipid on 300 nM Gsα-stimulated mAC3: 20 µM, in words
T1 construct: Human mAC genes were from GenScript and fitted with a C-terminal FLAG-tag; FLAG (C); made in house; host or cells: HEK293, permanently transfected; membrane preparation
Protocol: (§1) hAC sequences were from NCBI were: ADCY1: NM_021116.3; ADCY2: NM_020546.2; ADCY3: NM_004036.4; ADCY4: NM_001198568.2; ADCY5: NM_183357.2; ADCY6: NM_015270.4; ADCY7: NM_001114.4; ADCY8: NM_001115.2; ADCY9: NM_001116.3. Human mAC genes were from GenScript and fitted with a C-terminal FLAG-tag. […] The gene was synthesized by GenScript. HEK293 cells were maintained in Dulbeccos Modified Eagle Medium (DMEM) with 10% fetal bovine serum at 37°C and 5% CO2. Transfection with AC plasmids was with PolyJet (SignaGen, Frederick, MD, USA). Permanent cell lines were generated by selection for 7 days with 600 µg/ml G418 and maintained with 300 µg/ml For membrane preparation, cells were tyrpsinized, collected by centrifugation (3000 × g, 5 min) and lysed and homogenized in 20 mM HEPES, pH 7.5, 1 mM Ethylenediaminetetraacetic acid (EDTA), 2 mM MgCl2, 1 mM Dithiothreitol (DTT), one tablet of cOmplete, EDTA-free (per 50 ml) and 250 mM sucrose by 20 strokes in a potter homogenizer on ice. Debris was removed (5 min at 1000 × g, 0°C), membranes were collected at 100,000 × g, 60 min at 0°C, suspended and stored at −80°C in 20 mM MOPS, pH 7.5, 0.5 mM EDTA, 2 mM MgCl2. […] Three cerebral cortices were dissected and homogenized in 4.5 ml cold 48 mM Tris–HCl, pH 7.4, 12 mM MgC1_2, and 0.1 mM Ethylene glycol-bis(β-aminoethyl ether)-N,N,N′,N′-tetraacetic acid (EGTA) with a Polytron hand disperser (Kinematica AG, Switzerland). […] The pellet was washed once with 5 ml 1 mM KHCO3. The final suspension in 2 ml 1 mM KHCO3 was stored in aliquots at −80°C.
(§2) In a volume of 10 μl, AC activities were measured using 1 mM ATP, 2 mM MgCl2, 3 mM creatine phosphate, 60 μg/ml creatine kinase, and 50 mM MOPS pH 7.5. The cAMP assay kit from Cisbio (Codolet, France) was used for detection according to the supplier’s instructions. For each assay, a cAMP standard curve was established. EC50 and IC50 values were calculated by GraphPad Prism version 8.4.3 for Windows, GraphPad Software, San Diego, CA, USA, https://www.graphpad.com .

[2] = target: T2, mAC5 (Homo sapiens, UniProt O95622); experiment: AC assay, Gsα-stimulated mAC5 in membranes from transfected HEK293 cells; settings: 20µM fatty acid concentration
T2 construct: Human mAC genes were from GenScript and fitted with a C-terminal FLAG-tag; FLAG (C); made in house; host or cells: HEK293, permanently transfected; membrane preparation
Protocol: as §1, §2

[3] = target: T3, mAC7 (Homo sapiens, UniProt P51828); experiment: AC assay, Gsα-stimulated mAC7 in membranes from transfected HEK293 cells; settings: for mAC7 activity [%] (100% = 300nM Gsα stimulation); 20µM fatty acid concentration: Figure 5-figure supplement 2 left
T3 construct: Human mAC genes were from GenScript and fitted with a C-terminal FLAG-tag; FLAG (C); made in house; host or cells: HEK293, permanently transfected; membrane preparation
T3 sequence (P51828 whole entry): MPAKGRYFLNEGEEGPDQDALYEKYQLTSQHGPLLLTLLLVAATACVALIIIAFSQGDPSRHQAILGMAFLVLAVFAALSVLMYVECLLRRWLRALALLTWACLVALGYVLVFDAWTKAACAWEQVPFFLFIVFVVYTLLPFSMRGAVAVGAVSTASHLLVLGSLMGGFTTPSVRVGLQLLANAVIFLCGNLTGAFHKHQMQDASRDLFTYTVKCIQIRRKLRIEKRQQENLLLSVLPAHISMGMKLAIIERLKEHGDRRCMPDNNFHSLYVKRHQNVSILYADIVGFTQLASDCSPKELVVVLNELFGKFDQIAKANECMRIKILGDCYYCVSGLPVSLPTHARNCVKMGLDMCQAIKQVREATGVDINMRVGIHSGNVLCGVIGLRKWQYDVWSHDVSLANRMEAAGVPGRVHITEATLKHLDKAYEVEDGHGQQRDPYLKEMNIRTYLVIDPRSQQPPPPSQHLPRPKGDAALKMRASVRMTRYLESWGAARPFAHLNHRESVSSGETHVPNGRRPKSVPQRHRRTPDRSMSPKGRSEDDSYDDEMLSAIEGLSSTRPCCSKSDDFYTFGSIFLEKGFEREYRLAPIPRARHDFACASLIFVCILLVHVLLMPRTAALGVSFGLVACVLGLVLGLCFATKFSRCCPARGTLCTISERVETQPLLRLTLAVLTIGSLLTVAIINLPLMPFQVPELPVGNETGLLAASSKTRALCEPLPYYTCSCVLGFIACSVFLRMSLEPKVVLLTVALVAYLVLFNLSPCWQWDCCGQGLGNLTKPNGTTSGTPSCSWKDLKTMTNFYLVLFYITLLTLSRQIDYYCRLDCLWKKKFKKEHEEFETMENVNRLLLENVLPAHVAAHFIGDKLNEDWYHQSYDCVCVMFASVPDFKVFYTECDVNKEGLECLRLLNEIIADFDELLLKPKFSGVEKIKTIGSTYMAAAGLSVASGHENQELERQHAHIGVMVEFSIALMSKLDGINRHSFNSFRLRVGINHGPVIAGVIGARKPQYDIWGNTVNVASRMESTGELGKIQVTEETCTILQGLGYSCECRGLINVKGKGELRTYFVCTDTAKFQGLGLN
T3 sequence (P63092 2-394 Q227L partner): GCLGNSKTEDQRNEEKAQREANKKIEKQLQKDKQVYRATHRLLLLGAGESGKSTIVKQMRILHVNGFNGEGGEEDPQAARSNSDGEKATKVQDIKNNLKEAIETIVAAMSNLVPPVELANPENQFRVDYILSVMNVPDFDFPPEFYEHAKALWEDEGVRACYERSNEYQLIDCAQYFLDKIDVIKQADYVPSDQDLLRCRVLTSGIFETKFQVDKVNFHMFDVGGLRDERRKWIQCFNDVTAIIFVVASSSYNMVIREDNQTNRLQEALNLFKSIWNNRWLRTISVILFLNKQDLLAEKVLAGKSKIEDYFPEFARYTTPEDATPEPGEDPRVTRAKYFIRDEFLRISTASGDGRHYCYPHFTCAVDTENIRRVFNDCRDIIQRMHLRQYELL
Protocol: as §1, §2

[4] = target: T4, mAC9 (Homo sapiens, UniProt O60503); experiment: AC assay, Gsα-stimulated mAC9 in membranes from transfected HEK293 cells; settings: for mAC9 activity [%] (100% = 300nM Gsα stimulation); 20µM fatty acid concentration / mAC9 activity (%);(100% = Gsα stimulation) stimulated by 300nM Gsα: single experiments
T4 construct: Human mAC genes were from GenScript and fitted with a C-terminal FLAG-tag; FLAG (C); made in house; host or cells: HEK293, permanently transfected; membrane preparation
Protocol: as §1, §2

[5] = target: T5, mAC1 (Homo sapiens, UniProt Q08828); experiment: AC assay, Gsα-stimulated mAC1 in membranes from transfected HEK293 cells; settings: for mAC1 activity [%] (100% = 300nM Gsα stimulation); 20µM fatty acid concentration: single experiments
T5 construct: Human mAC genes were from GenScript and fitted with a C-terminal FLAG-tag; FLAG (C); made in house; host or cells: HEK293, permanently transfected; membrane preparation
T5 sequence (Q08828 whole entry): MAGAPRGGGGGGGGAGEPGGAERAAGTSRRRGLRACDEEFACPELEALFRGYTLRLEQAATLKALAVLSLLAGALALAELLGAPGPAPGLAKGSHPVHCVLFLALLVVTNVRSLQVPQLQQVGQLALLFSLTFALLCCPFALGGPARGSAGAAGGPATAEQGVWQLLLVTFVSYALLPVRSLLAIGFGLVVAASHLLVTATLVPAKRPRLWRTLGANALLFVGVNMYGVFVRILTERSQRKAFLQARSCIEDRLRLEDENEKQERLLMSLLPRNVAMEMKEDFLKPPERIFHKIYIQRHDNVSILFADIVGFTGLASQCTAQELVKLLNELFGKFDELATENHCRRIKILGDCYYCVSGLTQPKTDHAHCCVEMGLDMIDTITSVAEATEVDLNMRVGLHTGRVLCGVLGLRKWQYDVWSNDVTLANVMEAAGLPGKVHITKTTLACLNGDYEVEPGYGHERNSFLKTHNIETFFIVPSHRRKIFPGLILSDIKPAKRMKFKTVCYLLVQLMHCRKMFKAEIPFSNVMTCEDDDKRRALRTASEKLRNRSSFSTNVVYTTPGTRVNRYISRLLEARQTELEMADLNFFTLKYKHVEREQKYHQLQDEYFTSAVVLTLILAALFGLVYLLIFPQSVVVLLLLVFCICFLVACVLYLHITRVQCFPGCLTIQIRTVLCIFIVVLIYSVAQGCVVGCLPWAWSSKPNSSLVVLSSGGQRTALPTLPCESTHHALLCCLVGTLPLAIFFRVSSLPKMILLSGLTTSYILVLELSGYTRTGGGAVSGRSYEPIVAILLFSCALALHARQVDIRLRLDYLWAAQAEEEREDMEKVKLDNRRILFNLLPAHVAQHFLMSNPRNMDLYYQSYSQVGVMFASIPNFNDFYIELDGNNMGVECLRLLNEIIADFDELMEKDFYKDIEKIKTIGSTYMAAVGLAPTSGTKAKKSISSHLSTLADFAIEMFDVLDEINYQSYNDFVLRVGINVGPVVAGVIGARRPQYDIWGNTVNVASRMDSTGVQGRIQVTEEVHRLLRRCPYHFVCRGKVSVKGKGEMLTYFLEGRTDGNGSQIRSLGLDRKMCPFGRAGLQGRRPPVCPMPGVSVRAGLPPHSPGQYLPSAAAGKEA
Protocol: as §1, §2

[6] = target: T6, mAC2 (Homo sapiens, UniProt Q08462); experiment: AC assay, Gsα-stimulated mAC2 in membranes from transfected HEK293 cells; settings: Figure 5-figure supplement 1 left, 20 µM
T6 construct: Human mAC genes were from GenScript and fitted with a C-terminal FLAG-tag; FLAG (C); made in house; host or cells: HEK293, permanently transfected; membrane preparation
T6 sequence (Q08462 whole entry): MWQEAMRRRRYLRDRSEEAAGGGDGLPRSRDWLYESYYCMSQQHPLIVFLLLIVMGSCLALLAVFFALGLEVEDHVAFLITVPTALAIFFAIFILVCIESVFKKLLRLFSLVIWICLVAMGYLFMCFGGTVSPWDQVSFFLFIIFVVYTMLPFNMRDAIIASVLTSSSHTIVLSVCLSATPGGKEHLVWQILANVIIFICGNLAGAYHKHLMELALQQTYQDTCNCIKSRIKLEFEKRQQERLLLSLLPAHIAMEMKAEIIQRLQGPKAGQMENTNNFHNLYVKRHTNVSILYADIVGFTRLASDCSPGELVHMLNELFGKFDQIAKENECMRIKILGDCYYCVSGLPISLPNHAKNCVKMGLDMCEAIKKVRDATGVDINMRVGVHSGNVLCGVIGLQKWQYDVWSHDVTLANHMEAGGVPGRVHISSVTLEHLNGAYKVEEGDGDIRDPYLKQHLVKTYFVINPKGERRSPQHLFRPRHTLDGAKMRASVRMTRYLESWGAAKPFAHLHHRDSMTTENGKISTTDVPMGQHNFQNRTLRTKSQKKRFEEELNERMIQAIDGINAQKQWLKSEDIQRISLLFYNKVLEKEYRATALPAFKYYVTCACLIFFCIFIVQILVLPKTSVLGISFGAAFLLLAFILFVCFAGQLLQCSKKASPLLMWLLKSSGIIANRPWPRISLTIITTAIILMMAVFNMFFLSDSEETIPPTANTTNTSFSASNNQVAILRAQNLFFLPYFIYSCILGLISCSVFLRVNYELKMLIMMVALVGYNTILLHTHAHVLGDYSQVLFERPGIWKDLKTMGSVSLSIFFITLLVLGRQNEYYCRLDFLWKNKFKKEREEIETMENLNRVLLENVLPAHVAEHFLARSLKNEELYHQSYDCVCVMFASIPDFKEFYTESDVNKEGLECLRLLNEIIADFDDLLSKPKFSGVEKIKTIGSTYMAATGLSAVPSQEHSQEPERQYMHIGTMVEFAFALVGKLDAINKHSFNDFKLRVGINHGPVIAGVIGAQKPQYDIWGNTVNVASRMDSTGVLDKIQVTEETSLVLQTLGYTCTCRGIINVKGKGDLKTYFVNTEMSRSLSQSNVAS
T6 sequence (P63092 2-394 Q227L partner): as the sequence (P63092 2-394 Q227L partner) above
Protocol: as §1, §2

[7] = target: T7, mAC4 (Homo sapiens, UniProt Q8NFM4); experiment: AC assay, Gsα-stimulated mAC4 in membranes from transfected HEK293 cells; settings: for mAC4 activity [%] (100% = 300nM Gsα stimulation); 20µM fatty acid concentration: single experiments
T7 construct: Human mAC genes were from GenScript and fitted with a C-terminal FLAG-tag; FLAG (C); made in house; host or cells: HEK293, permanently transfected; membrane preparation
T7 sequence (Q8NFM4 1-1077): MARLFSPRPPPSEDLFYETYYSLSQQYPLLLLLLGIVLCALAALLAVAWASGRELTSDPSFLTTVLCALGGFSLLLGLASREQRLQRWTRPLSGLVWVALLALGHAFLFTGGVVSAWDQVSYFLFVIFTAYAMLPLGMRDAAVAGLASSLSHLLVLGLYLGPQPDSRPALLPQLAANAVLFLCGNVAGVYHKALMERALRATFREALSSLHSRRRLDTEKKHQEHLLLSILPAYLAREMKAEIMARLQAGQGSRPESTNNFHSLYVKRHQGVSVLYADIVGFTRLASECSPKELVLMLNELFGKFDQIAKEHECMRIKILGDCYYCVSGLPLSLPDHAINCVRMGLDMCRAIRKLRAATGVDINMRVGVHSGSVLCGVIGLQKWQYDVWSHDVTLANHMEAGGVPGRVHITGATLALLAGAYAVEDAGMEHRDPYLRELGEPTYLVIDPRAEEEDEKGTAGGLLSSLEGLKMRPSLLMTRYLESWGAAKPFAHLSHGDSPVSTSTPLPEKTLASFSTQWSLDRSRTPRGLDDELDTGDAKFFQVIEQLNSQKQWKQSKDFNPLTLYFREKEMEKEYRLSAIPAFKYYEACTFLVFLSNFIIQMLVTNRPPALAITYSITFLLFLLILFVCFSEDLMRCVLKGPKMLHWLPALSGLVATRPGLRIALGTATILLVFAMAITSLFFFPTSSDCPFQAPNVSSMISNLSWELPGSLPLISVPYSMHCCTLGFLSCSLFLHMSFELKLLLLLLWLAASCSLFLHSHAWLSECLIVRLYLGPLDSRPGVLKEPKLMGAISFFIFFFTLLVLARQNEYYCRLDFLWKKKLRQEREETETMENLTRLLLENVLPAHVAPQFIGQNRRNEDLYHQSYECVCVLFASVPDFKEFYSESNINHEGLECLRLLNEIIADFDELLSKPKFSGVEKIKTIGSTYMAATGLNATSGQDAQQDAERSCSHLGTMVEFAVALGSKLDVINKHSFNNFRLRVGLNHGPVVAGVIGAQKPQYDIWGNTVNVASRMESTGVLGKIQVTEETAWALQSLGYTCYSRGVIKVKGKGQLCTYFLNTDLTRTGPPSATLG
Protocol: as §1, §2

[8] = target: T8, mAC6 (Homo sapiens, UniProt O43306); experiment: AC assay, Gsα-stimulated mAC6 in membranes from transfected HEK293 cells; settings: 20µM fatty acid concentration
T8 construct: Human mAC genes were from GenScript and fitted with a C-terminal FLAG-tag; FLAG (C); made in house; host or cells: HEK293, permanently transfected; membrane preparation
T8 sequence (O43306 whole entry): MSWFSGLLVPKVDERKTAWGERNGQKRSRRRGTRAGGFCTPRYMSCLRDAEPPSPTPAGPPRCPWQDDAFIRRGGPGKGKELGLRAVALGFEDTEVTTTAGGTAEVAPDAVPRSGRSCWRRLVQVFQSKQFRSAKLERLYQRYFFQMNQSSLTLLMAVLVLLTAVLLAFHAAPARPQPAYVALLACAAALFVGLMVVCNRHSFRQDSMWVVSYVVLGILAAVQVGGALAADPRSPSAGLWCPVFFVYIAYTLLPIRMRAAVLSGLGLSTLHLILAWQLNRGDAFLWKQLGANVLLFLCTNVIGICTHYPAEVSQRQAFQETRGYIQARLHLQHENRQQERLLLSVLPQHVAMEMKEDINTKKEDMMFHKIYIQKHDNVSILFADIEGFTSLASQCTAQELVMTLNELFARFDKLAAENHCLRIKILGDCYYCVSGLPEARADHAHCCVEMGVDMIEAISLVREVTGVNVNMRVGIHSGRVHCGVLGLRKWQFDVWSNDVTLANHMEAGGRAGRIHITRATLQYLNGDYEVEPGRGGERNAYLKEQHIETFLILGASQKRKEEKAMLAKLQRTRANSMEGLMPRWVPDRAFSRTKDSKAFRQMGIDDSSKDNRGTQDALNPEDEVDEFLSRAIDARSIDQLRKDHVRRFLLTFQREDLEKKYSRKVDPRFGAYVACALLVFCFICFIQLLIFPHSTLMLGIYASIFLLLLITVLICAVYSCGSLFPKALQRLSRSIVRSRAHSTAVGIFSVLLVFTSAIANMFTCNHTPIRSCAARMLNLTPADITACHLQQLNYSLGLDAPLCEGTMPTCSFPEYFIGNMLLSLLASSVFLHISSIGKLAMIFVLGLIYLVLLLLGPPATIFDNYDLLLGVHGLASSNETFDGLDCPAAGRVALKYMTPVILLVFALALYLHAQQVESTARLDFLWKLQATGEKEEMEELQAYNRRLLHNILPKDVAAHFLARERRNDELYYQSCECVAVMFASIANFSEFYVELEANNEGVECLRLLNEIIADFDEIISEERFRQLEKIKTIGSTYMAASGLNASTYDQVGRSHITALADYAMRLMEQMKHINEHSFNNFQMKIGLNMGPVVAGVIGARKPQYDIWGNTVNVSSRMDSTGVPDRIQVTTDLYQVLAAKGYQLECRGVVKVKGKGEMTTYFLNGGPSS
Protocol: as §1, §2

Row | Compound | mAC3 activity [%] (100% = 300nM Gsα stimulation) [1] | mAC5 activity [%] (100% = 300nM Gsα stimulation) [2] | mAC7 activity [%] (100% = 300nM Gsα stimulation); 20µM fatty acid concentration [3] | mAC9 activity [%] (100% = 300nM Gsα stimulation); 20µM fatty acid concentration [4] | mAC1 activity [%] (100% = 300nM Gsα stimulation); 20µM fatty acid concentration [5] | mAC2 activity [%] (100% = 300nM Gsα stimulation); 20µM fatty acid concentration [6] | Effect of lipid on 300 nM Gsα-stimulated mAC3 [1] | mAC4 activity [%] (100% = 300nM Gsα stimulation); 20µM fatty acid concentration [7] | mAC6 activity [%] (100% = 300nM Gsα stimulation) [8] | EC50 ([3]; enhancement of 300 nM Gsα-stimulated activity) | activity at 0.3 µM ([3]; read-out: mAC7 activity (%);(100% = Gsα stimulation) stimulated by 300nM Gsα, Elaidic acid 0.3 µM) | mAC9 activity (%);(100% = Gsα stimulation) stimulated by 300nM Gsα ([4]; 3 µM fatty acid) | mAC9 activity (%);(100% = Gsα stimulation) stimulated by 300nM Gsα ([4]; 6 µM fatty acid) | EC50 ([4]; enhancement of 300 nM Gsα-stimulated activity, read-out: EC50 for mAC9) | Effect of lipid on 300 nM Gsα-stimulated mAC1 ([5]; 20 µM, in words) | Effect of lipid on 300 nM Gsα-stimulated mAC4 ([7]; 20 µM, in words)
1 | CCCCCCCC/C=C\CCCCCCCC(=O)OC(CO)CO [2-Oleoylglycerol] | 72% | 96% | 93% | 131% | – | – | – | – | – | – | – | – | – | – | – | –
2 | CCCCCCCC/C=C/CCCCCCCC(=O)O [Elaidic acid, Elaidic ((9E)-octadecenoic) acid] | 437% and 276% and 279% and 778% and 673% | – | – | – | 72% and 100% | 131% | efficient enhancers | 130% and 156% and 151% | 101% and 97% | 9.7 µM | 100% | 154% and 261% and 166% and 178% | 346% and 329% and 316% and 303% and 243% | 5 µM | – | –
3 | CC/C=C\C/C=C\C/C=C\C/C=C\C/C=C\CCCC(=O)O [EPA, Eicosapentaenoic ((5Z,8Z,11Z,14Z,17Z)-eicosapentaenoic) acid] | 169% and 200% and 266% and 160% | 101% and 83% | 113% and 166% | – | 99% and 107% and 86% and 87% | 102% and 159% | less efficacious | – | 112% and 108% | – | – | – | – | – | no effect | no effect
4 | Triolein | 96% | 95% | 83% | 107% | – | – | – | – | – | – | – | – | – | – | – | –
5 | CC/C=C\C/C=C\C/C=C\CCCCCCCC(=O)O [Linolenic acid, Linolenic ((9Z,12Z,15Z)-octadecatrienoic) acid] | 159% and 177% and 241% and 105% and 288% and 273% | 79% and 81% | – | – | 63% and 90% | 99% and 105% | less efficacious | 62% and 65% and 86% | 103% and 104% | – | – | 144% and 110% and 75% | 125% and 149% and 124% and 119% and 96% | – | – | –
6 | O=C(O)CCCCCCCCCCCCCCCCCCC(=O)O [Octadecane-(COOH)2, 1,18-Octadecanedicarboxylic acid] | 104% and 106% and 66% | 102% and 118% and 78% | 81% and 97% | 102% and 67% | 88% and 87% and 108% | 101% and 81% and 91% | – | 91% and 73% | 83% and 136% and 76% | – | – | – | – | – | – | –
7 | CCCCCCCC/C=C\CCCCCCCC(=O)OC [Me-Oleate, Methyl oleate] | 141% and 90% | 60% and 91% | 115% and 85% | 86% and 143% | 99% and 63% | 121% and 73% | – | 77% and 99% | 78% and 90% | – | – | – | – | – | – | –
